Experiments:
GRP78 = assay: Western blot of ER stress marker GRP78 in kidney tissue; assay type: in vivo, mouse; conditions: cyst induced pkd−/− mice, VX-809 30 mg/kg BW
Description: (§1) FIG. 11A. FIG. 11B, FIG. 11C, FIG. 11D, and FIG. 11E show expression of ER stress markers GRP78, ErO1, and GADD in Pkd1^−/− mice treated with VX-809. (FIG. 11A & FIG. 11D) Representative Western blot images of GRP78, ErO1, and GADD in lysates of kidney tissue from no cyst induced (ND), cyst induced with doxycycline (D) or cyst induced pkd−/− mice treated with VX-809 (D+VX-809) 30 mg/kg BW. (FIG. 11B, FIG. 11C and FIG. 11E) Columns represent averages±standard errors of GRP78, ErO1, and GADD153 expression. Data were analyzed by non-parametric t-test. n=4 for each treated and control groups. Black lines between lanes represent representative experiments from the same gel but loaded in different lanes. **P<0.01, ***P<0.001;
(§2) Given that VX-809 alters an ensemble of Hsps, it was evaluated whether VX-809 alters proteins associated with ER stress. To address this question, the levels of three ER stress-associated proteins were measured, 78-kDa glucose-regulated protein (GRP78), ER oxidoreductin 1 (Ero1) and DNA damage-inducible protein 3 (GADD153), also known as C/EBP homologous protein (CHOP) (37). The results are depicted in FIG. 11 show no changes in GRP78 or Ero1 in response to VX-809.

[1] = system: cAMP in PC1 conditional knockout mouse kidneys; assay: cAMP levels in mouse kidney tissue; assay type: in vivo; conditions: kidney samples from mice of FIG. 1 (VX-809 30 mg/kg)
Description: FIG. 4A, FIG. 4B, FIG. 4C, FIG. 4D, and FIG. 4E show (FIG. 4A-FIG. 4B) cAMP levels are reduced by VX-809. (FIG. 4A) cAMP levels in mouse tissue were reduced by VX-809. The kidney samples (n=6) analyzed were taken from those depicted in FIG. 1. (FIG. 4B) Confluent PN and PH cells were treated with VX-809 (10 μM) or DMSO for 16 h and then treated with forskolin (100 μM) for 30 min before the cells were harvested for the assay. Columns represent means±SEM. Statistical analysis was performed using a two-tailed Student's t-test. Each set of data is from three individual wells; Note that resting cAMP is greater in PN vs PH cells as previously shown (25). Also note that forskolin caused a large increase in cAMP. […] The data were analyzed by non-parametric t-test. […]
It has been shown previously in both animal and cell culture models of ADPKD that cells lacking functional PC1 have elevated cAMP levels when compared to normal (24). To assess the effect of CFTR correctors, cAMP activity was measured in PC1 conditional knockout mouse kidneys and in PN cells that were either left untreated or treated with VX-809. […]
Confluent cells were treated with VX-809 (10 μM) or DMSO for 16 h before being harvested for assay. Cyclic AMP levels were measured with a direct cAMP Enzyme Immunoassay Kit (Sigma, # CA200) according to the manufacturer's protocol. The results are expressed as pmole/ml. […]

Ero1 = assay: Western blot of ER stress marker Ero1 in kidney tissue; assay type: in vivo, mouse; conditions: cyst induced pkd−/− mice, VX-809 30 mg/kg BW
Description: as §1, §2

NHE3 = NHE3 activity in PN cells; assay type: cell-based, mouse; conditions: PN cells treated with VX-809 vs PN cells
Description: FIG. 15A and FIG. 15B show NHE3 activity in PN and PH cells (FIG. 15A and FIG. 15B) and NHE3 activity in PN cells treated with VX-809.
FIG. 16A, FIG. 16B, and FIG. 16C show NHE activity in PN/PH cells or PN cells treated with VX-809;
The expression and activity of […] were evaluated. Specifically, NHE3 expression was evaluated in PN cells that were treated with VX-809. […] was also studied in PN, PH, and PN cells treated with VX-809. […] Next, NHE3 activity was evaluated in PN/PH cells or PN cells treated with VX-809. NHE3 activity was increased in PN cells treated with VX-809, as compared to PN cells (FIG. 16A). NHE3 activity was higher in control PH cells than in PN cells (FIG. 16B). […] NHE3 activity was increased in both VX-809 treated PN cells and control PH cells, as compared to control PN cells (FIG. 16C).

[2] = system: caspase 3 activity in PN cells; assay: EnzChek Caspase-3 assay (apoptosis); assay type: cell-based, mouse; conditions: 16 h treatment
Description: Apoptosis was measured using the EnzChek Caspase-3 Assay Kit (Invitrogen # E13184). Cells were treated either with VX-809 or with DMSO at indicated concentrations for 16 h or left untreated (control). Both treated and control cells were then harvested, lysed, and assayed as described in the manufacturer's protocol. Reactions were carried out at room temperature, and fluorescence was measured in a fluorescence microplate reader (SpectraMax M3), with excitation at 496 nm and emission detection at 520 nm. Background fluorescence, determined for a no-enzyme control, has been subtracted from each value. Ac-DEVD-CHO was used as an inhibitor control (Inh-cntrl) to confirm the correlation between signal detection and caspase3-like protease activity. Data were analyzed using one-way and ANOVA multiple comparisons. n=4-5. ****P<0.0001;
Apoptosis is associated with the absence of PC1 in ADPKD (36). To assess whether apoptosis is directly altered by VX-809, caspase 3 activity was monitored in PN cells.

## lumacaftor [VX-809]
GRP78
  GRP78 expression: no changes
[1]
  cAMP levels in mouse kidneys: significantly decreased the cAMP levels
Ero1
  Ero1 expression: no changes
NHE3
  NHE3 activity: significantly increased
[2]
  caspase 3 activity: small reduction in caspase 3 activity

From patent US20200289482A1, “CYSTIC FIBROSIS TRANSMEMBRANE CONDUCTANCE REGULATOR MODULATORS FOR TREATING AUTOSOMAL DOMINANT POLYCYSTIC KIDNEY DISEASE” (The Johns Hopkins University, priority 2017, published 2020)
